Reference: ChEMBL document CHEMBL1649484, “AbaR5, a large multiple-antibiotic resistance region found in Acinetobacter baumannii” (2009)
Converted amounts (≈) assume the structure as drawn.

Tests used:
Format in all cases: functional
Acinetobacter baumannii [1] = experiment: Antimicrobial activity against Acinetobacter baumannii 3208 expressing multiple-antibiotic resistance gene AbaR5 by […] 2 system
Acinetobacter baumannii [2] = experiment: Antimicrobial activity against Acinetobacter baumannii 3208 expressing multiple-antibiotic resistance gene AbaR5 by […] 2 system in presence of beta-lactamase inhibitor Tazobactam
Acinetobacter baumannii [3] = experiment: Antimicrobial activity against Acinetobacter baumannii 3208 expressing multiple-antibiotic resistance gene AbaR5 by […] 2 system in presence of beta-lactamase inhibitor clavulanic acid

| Compound | MIC (Acinetobacter baumannii [1]) [µg/mL] | also measured |
| --- | --- | --- |
| CO/N=C(\C(=O)N[C@@H]1C(=O)N2C(C(=O)[O-])=C(C[N+]3(C)CCCC3)CS[C@H]12)c1csc(N)n1 [CEFEPIME] | 16 (≈ 33.3 µM) |  |
| O=C(O)c1cn(C2CC2)c2cc(N3CCNCC3)c(F)cc2c1=O [CIPROFLOXACIN] | ≥ 4 |  |
| C[C@@H](O)[C@H]1C(=O)N2C(C(=O)O)=C(S[C@@H]3CN[C@H](C(=O)N(C)C)C3)[C@H](C)[C@H]12 [MEROPENEM] | 0.5 (≈ 1.3 µM) |  |
| CCN1CCN(C(=O)N[C@@H](C(=O)N[C@@H]2C(=O)N3[C@@H]2SC(C)(C)[C@@H]3C(=O)O)c2ccccc2)C(=O)C1=O [PIPERACILLIN] |  | MIC (Acinetobacter baumannii [2]): ≤ 4 µg/mL |
| CC1(C)S[C@@H]2[C@H](NC(=O)[C@H](C(=O)O)c3ccsc3)C(=O)N2[C@H]1C(=O)O [TICARCILLIN] |  | MIC (Acinetobacter baumannii [3]): 32 µg/mL |
| NC[C@H]1O[C@H](O[C@H]2[C@H](O)[C@@H](O[C@H]3O[C@H](CO)[C@@H](O)[C@H](N)[C@H]3O)[C@H](N)C[C@@H]2N)[C@H](N)C[C@@H]1O [TOBRAMYCIN] | ≤ 1 |  |
| GENTAMICIN | > 16 |  |
